Laboratory results from patent publication US20240245694A1, “Tricyclic Compounds and their Uses” (Novartis AG, priority 2022, published 2024).

How the values were obtained:
[1] = molecular target: WRN helicase (core helicase motif aa N517-P1238) (Homo sapiens (Human), UniProt Q14191); assay: WRN ATPase assay (ADP-Glo), DNA dependent ATP hydrolysis; format: biochemical; conditions: 3 hours pre-incubation, 300 micromolar ATP, FLAP26 ssDNA; geometric means of at least 2 determinations
How it was run: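 Uses the WRN core helicase (aa N517-P1238) with single-strand 45-mer FLAP26 DNA in Tris pH 7.5, MgCl2, NaCl, BSA and pluronic buffer. Compound was pre-incubated 3 h with enzyme and ATP; reaction then run with 10 nM WRN, 0.2 nM FLAP26 and 300 µM ATP for 30 min at room temperature. ADP quantified by ADP-Glo luminescence; IC50 from duplicate 4-parameter fits, geometric mean of ≥2 runs.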

[2] = tested on: SW48 cells; assay: Proliferation assay SW48 (CellTiterGlo, 96 hours); format: cell-based; conditions: Homo sapiens
How it was run: (§1)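 Cells in RPMI-1640/10% FCS were seeded overnight (SW48 2'000, DLD1-WRN-KO 1'500 cells/well), then exposed to eight 3-fold compound dilutions at 0.1% DMSO. ATP luminescence relative to a day-0 plate gives % growth (0% stasis, −100% complete kill). GI50 is the geometric mean of ≥2 independent replicates.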

[3] = tested on: DLD1-WRN-KO cells; assay: Proliferation assay DLD1-WRN-KO (CellTiterGlo, 96 hours), off-target effects; format: cell-based; conditions: Homo sapiens
How it was run: as §1

Sequence of WRN helicase (core helicase motif aa N517-P1238) (Q14191 517-1238): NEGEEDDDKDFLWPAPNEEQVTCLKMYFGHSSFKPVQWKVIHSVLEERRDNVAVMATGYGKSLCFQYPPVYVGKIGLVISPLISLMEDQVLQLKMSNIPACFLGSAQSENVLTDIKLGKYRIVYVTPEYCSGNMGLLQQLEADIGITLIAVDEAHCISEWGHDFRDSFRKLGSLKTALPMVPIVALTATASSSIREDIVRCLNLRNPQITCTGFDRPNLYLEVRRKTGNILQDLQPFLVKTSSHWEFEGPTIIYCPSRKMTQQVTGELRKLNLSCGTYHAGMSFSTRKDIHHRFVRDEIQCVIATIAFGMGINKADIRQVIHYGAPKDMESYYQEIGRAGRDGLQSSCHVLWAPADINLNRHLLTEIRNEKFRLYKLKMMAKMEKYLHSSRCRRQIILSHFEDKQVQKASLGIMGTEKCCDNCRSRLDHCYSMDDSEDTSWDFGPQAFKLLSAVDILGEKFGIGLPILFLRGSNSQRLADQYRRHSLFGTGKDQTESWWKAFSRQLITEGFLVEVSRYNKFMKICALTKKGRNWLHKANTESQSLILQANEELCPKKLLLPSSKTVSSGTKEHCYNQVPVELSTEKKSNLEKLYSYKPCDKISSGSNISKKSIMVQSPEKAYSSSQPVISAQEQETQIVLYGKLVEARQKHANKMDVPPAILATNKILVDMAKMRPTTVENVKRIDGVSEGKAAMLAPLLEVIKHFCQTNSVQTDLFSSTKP

| Structure (SMILES) | IC50 [1] [µM] | GI50 [2] [µM] | GI50 [3] [µM] |
| --- | --- | --- | --- |
| Cc1ncnc(C(=O)N2CCN(c3c4n(c5nc(C6=CCOCC6)nn5c3=O)[C@H](C(=O)Nc3ccc(C(F)(F)F)cc3Cl)C[C@@H]4C)CC2)c1O [Example 14B, (7S,9S)—N-(2-chloro-4-(trifluoromethyl)phenyl)-2-(3,6-dihydro-2H-pyran-4-yl)-6-(4-(5-hydroxy-6-methylpyrimidine-4-carbonyl)piperazin-1-yl)-7-methyl-5-oxo-5,7,8,9-tetrahydropyrrolo[1,2-c][1,2,4]triazolo[1,5-a]pyrimidine-9-carboxamide] | 2 | 0.7 | > 10 |
| Cc1ncnc(C(=O)N2CCN(c3c4n(c5nc(C6=CCOCC6)nn5c3=O)[C@@H](C(=O)Nc3ccc(C(F)(F)F)cc3Cl)C[C@@H]4C)CC2)c1O [Example 14C, (7S,9R)—N-(2-chloro-4-(trifluoromethyl)phenyl)-2-(3,6-dihydro-2H-pyran-4-yl)-6-(4-(5-hydroxy-6-methylpyrimidine-4-carbonyl)piperazin-1-yl)-7-methyl-5-oxo-5,7,8,9-tetrahydropyrrolo[1,2-c][1,2,4]triazolo[1,5-a]pyrimidine-9-carboxamide] | 0.1 | 0.3 | > 10 |
| Cc1ncnc(C(=O)N2CCN(c3c4n(c5nc(C6=CCOCC6)nn5c3=O)[C@H](C(=O)Nc3ccc(C(F)(F)F)cc3Cl)C[C@H]4C)CC2)c1O [Example 14D, (7R,9S)—N-(2-chloro-4-(trifluoromethyl)phenyl)-2-(3,6-dihydro-2H-pyran-4-yl)-6-(4-(5-hydroxy-6-methylpyrimidine-4-carbonyl)piperazin-1-yl)-7-methyl-5-oxo-5,7,8,9-tetrahydropyrrolo[1,2-c][1,2,4]triazolo[1,5-a]pyrimidine-9-carboxamide] | 1 | 0.7 | > 10 |
| Cc1cc(C(F)(F)F)ccc1NC(=O)[C@H]1C[C@@H](C)c2c(N3CCN(C(=O)c4ncccc4O)CC3)c(=O)n3nc(C4=CCOCC4)nc3n21 [Example 15A, (7R,9R)-2-(3,6-dihydro-2H-pyran-4-yl)-6-(4-(3-hydroxypicolinoyl)piperazin-1-yl)-7-methyl-N-(2-methyl-4-(trifluoromethyl)phenyl)-5-oxo-5,7,8,9-tetrahydropyrrolo[1,2-c][1,2,4]triazolo[1,5-a]pyrimidine-9-carboxamide] | 0.05 | 0.03 | > 10 |

Further molecules by falling IC50 [1], results first:

| IC50 [1] [µM] | GI50 [2] [µM] | GI50 [3] [µM] | Structure (SMILES) |
| --- | --- | --- | --- |
| 0.05 | 0.04 | > 10 | C[C@@H]1C[C@H](C(=O)Nc2ccc(C(F)(F)F)cc2Cl)n2c1c(N1CCN(C(=O)c3ncncc3O)CC1)c(=O)n1nc(C3=CCOCC3)nc21 [Example 13, (7R,9R)—N-(2-chloro-4-(trifluoromethyl)phenyl)-2-(3,6-dihydro-2H-pyran-4-yl)-6-(4-(5-hydroxypyrimidine-4-carbonyl)piperazin-1-yl)-7-methyl-5-oxo-5,7,8,9-tetrahydropyrrolo[1,2-c][1,2,4]triazolo[1,5-a]pyrimidine-9-carboxamide] |
| 0.04 | 0.02 | > 10 | Cc1ncnc(C(=O)N2CCN(c3c4n(c5nc(C6=CCOCC6)nn5c3=O)[C@@H](C(=O)Nc3ccc(C(F)(F)F)cc3Cl)C[C@H]4C)CC2)c1O [Example 14A, (7R,9R)—N-(2-chloro-4-(trifluoromethyl)phenyl)-2-(3,6-dihydro-2H-pyran-4-yl)-6-(4-(5-hydroxy-6-methylpyrimidine-4-carbonyl)piperazin-1-yl)-7-methyl-5-oxo-5,7,8,9-tetrahydropyrrolo[1,2-c][1,2,4]triazolo[1,5-a]pyrimidine-9-carboxamide] |
| 0.03 | 0.3 | > 10 | C[C@@H]1C[C@H](C(=O)Nc2ccc(C(F)(F)F)cc2Cl)n2c1c(N1CCN(C(=O)c3ccnc(F)c3O)CC1)c(=O)n1nc(C3=CCOCC3)nc21 [Example 12, (7R,9R)—N-(2-chloro-4-(trifluoromethyl)phenyl)-2-(3,6-dihydro-2H-pyran-4-yl)-6-(4-(2-fluoro-3-hydroxyisonicotinoyl)piperazin-1-yl)-7-methyl-5-oxo-5,7,8,9-tetrahydropyrrolo[1,2-c][1,2,4]triazolo[1,5-a]pyrimidine-9-carboxamide] |
